# Results: patent EP0808325B1, “[…] […] SERIES FOR […] GABA RECEPTOR” (priority 1994, dated 1996)
# Experiments:
# mice [1] = experiment: elevated plus-maze; assay type: in vivo, N.I.H. Swiss-Webster mice
# How it was run: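 Male Swiss-Webster mice (15-20 g), dosed once with drug or vehicle, were placed on an elevated plus-maze 10 min post-injection for 5 min. Open-arm entries and open-arm time recorded, each as a percentage of total arm entries or time; center time excluded.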
# maximal electroshock = maximal electroshock test; assay type: in vivo, mice; conditions: Mus musculus, ip, 20% hydroxypropyl-β-cyclodextrin in water
# Excerpt: The anticonvulsant tests are similar to that described above. […]
# mice [2] = experiment: light/dark transition test; assay type: in vivo, N.I.H. Swiss-Webster mice; conditions: IP
# Excerpt: The light/dark transition test (Crawley and Goodwin, Pharmacol. Biochem. Behav. 13:67-70 1980) is based on the observation that rodents naturally tend to explore novel environments, but open, brightly lit arenas are aversive to the rodents and inhibit exploratory behavior (Christmas and Maxwell, Neuropharmacol. 9:17-29 1970; File, J. Neurosci. Meth. 2:219-238 1980).
# Male N.I.H. Swiss-Webster mice (Harlan, Harlan, Indianapolis, IN) weighing 15-20 g were housed four per cage in polyethylene cages with sawdust bedding. The colony room was environmentally controlled (22°C) with a 12 hr light/dark cycle (0600-1800 hr). Food and water were available ad libitum, except during testing. The experiments were run from 0700-1500 hr and groups were counterbalanced for time of day effects. Mice were only administered drug or vehicle once.
# The method used was a modification of methods previously described (Wieland et al., Br. Res. 565:263-268 (1991)). The apparatus included two 2-compartment automated test chambers (Model RXYZCM16, Omnitech Electronics, Columbus, OH). The open compartment was connected to the enclosed compartment via a 7.5 x 7.5 cm passageway. The open compartment was brightly lit using a 200 W incandescent light bulb. The experimental room was kept dark. Interruptions of the infrared beams in either chamber were automatically recorded by being linked to a computer through a Digiscan Analyzer (Omnitech Electronics) and the data was analyzed using the Integrated Lab Animal Monitoring System (Omnitech Electronics).
# N.I.H. Swiss-Webster mice were administered vehicle or test drug intraperitoneally (IP), 10 min later they were placed in the center of the lit compartment. The number of transitions between the lit and dark chambers, total activity in the lit chamber and the time spent in the lit chamber were measured during a 10 min test period.
# GR complex = experiment: modulation of [35S]TBPS binding in rat cerebral cortex P2 homogenate; design: species or system Sprague-Dawley rats; IMAX: unit not given here
# How it was run: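 Rat (male Sprague-Dawley) cortical P2 homogenate, 0.5 mg protein, in 50 mM Na/K phosphate pH 7.4, 200 mM NaCl, incubated 90 min at 25° C with 2 nM [35S]TBPS plus GABA and (+)bicuculline, compounds added in DMSO. Filter-bound radioactivity counted; nonspecific binding defined with […].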
smiles,measurement,setting,value
"CC(=O)[C@H]1CC[C@H]2[C@@H]3CC[C@H]4C[C@H](O)CC[C@]4(C)[C@H]3CC[C@]12C [3α-hydroxy-5α-pregnan-20-one, reference compound]",time spent on the open-arms,mice [1]; 10 mg/kg (p ≤ 0.01),significant increases
same,entries into the open-arms,mice [1]; 20 mg/kg (p ≤ 0.05),significant increase
same,% Control,"mice [1]; IP, 50% hpbcd, 20 mg/kg",143.7%
same,ED50,maximal electroshock,28.6 mg/kg
same,activity,"mice [2]; 10 & 20 mg/kg, compared to control groups",significant (p < 0.01) increases
same,number of transitions between the dark box and the light box,"mice [2]; at doses tested, versus control (Dunnett's t-test)",significantly increased
same,IC50,"GR complex; concentration of compounds to inhibit 50% of control [35S]TBPS binding, 2 nM [35S]TBPS, 25°C, 90 minutes, no unit printed",0.037 µM
same,IMAX,"GR complex; maximum inhibition of [35S]TBPS binding, I* = Inactive",95
